Series [1] relates to different types of blood cancer. The conditions noted are these: cited from earlier work.
Series [2] concerns Colon 38 (C38, a C57BL/6J mouse colon adenocarcinoma cell line) tumor. The series can be described thus: C38 (Colon 38) subcutaneous tumor model, tumor volume. The class given is in vivo. The conditions noted are these: female C57BL/6J mice, 20 per group; 4SC-202 20 mg/kg PO twice daily x24; antibodies 10 mg/kg IP (anti-PD1 TWx2, anti-LAG-3 Q3Dx4); data to day 27. As for the experimental part: • 4SC-202 (tosylate salt). • Anti-PD1 antibody (clone: RMP1-14, catalog: BE0146, isotype: Rat IgG2a, Bioxcell), • Anti-LAG-3 antibody (clone: C9B7W, catalog: BE0174, isotype: Rat lgG1, Bioxcell),
• 4SC-202 was suspended in 2% aqueous methocel solution at 2 mg/ml (active compound). • Anti-PD-1 and anti-LAG3 antibody was diluted with PBS in order to reach final concentration of 1 mg/ml.
• 4SC-202 was administered at 20 mg/kg twice daily, based on 4SC-202 free base. • The anti-PD-1 and anti-LAG3 antibody was injected at 10 mg/kg per injection,
• 4SC-202 was administered by oral gavage (per os, PO) via a gavage tube. • The antibodies were injected intraperitoneally into the peritoneal cavity of mice. • In all cases, the administration volume was 10 mUkg adjusted to the most recent individual body weight of mice.
Colon 38 (C38, a C57BL/6J mouse colon adenocarcinoma cell line) tumor fragments.
The C38 fragments are stored frozen in DMSO/SVF/RPMI 1640 medium (10/10/80) in liquid nitrogen until use. In the study part 1, C38 frozen fragments were thawed at 37° C. for 5 min, rinsed twice in RPMI 1640 medium before subcutaneous (SC) implantation in mice.
Thirty-five (35) female C57BL/6J mice were subcutaneously implanted into the right flank with C38 tumor fragments. […]

Setting [3] is: 24 heavily pre-treated patients with different types of blood cancer.

Molecules are shown by their SMILES.

`Cn1cc(-c2ccc(S(=O)(=O)n3ccc(/C=C/C(=O)Nc4ccccc4N)c3)cc2)cn1` [Compound 4SC-202, (E)-N-(2-aminophenyl)-3-(1-((4-(1-methyl-1H-pyrazol-4-yl)phenyl)sulfonyl)-1H-pyrrol-3-yl)acrylamide]: in series [1] (setting [3]), the disease control is on record as 83 % of the patients, the long-term stabilization is 50 % of patients and the tolerability result was “well tolerated with few and/or manageable adverse events”. Further, the “complete remission, duration” value in series [1] (one complete remission among 24 heavily pre-treated patients) is given as 28 months. In addition, in series [1] (one partial responder among 24 heavily pre-treated patients), the “partial responder, duration” value is 8 months. Further, the “tumor growth reduction / anti-tumoral efficacy (in words)” value in series [2] is on record as “reduced tumor growth to a certain extent”.

The record behind these values is patent US20230201161A1, “Combination comprising HDAC inhibitor, LAG-3 inhibitor and a PD-1 inhibitor or PD-L1 inhibitor for cancer treatment” (4SC AG, priority 2018, published 2023).
